This is an account of results in US10487068B2, “Pyridazine derivatives as RORc modulators” (Genentech, Inc., priority 2015, dated 2019).

Molecules are shown by their SMILES.

The target in this experiment is T1, RORc ligand binding domain (Homo sapiens, UniProt P51449).
T1 sequence (P51449 269-508 limits assumed): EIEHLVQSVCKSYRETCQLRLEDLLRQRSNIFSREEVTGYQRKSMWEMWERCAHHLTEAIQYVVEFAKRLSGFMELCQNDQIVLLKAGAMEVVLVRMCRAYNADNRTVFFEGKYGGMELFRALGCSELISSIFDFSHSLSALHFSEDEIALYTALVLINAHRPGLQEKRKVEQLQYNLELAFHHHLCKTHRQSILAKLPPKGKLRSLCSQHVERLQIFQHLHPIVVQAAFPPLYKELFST
As to the kind of experiment: In Vitro RORc Ligand Binding Assay. The note with it: RORc IC50, radioligand 25-[3H]hydroxycholesterol 6 nM; 0.6 ug/mL RORc receptor; 3 h at 25° C.

Turning to `CC1(C)[C@H]2CC[C@]1(c1nc(N)ncc1F)c1nnc(-c3c(F)cccc3F)cc12` [Example 268], the 50% inhibitory concentration (IC50) (in general, the concentration needed to halve the response being measured) stood at 3.3 nM. For the molecule `CC(C)(O)c1cc(-c2cncc([C@@]34CC[C@@H](c5cc(-c6c(F)cccc6F)nnc53)C4(C)C)n2)on1` [Example 269, 2-(5-(6-((5R,8S)-3-(2,6-difluorophenyl)-9,9-dimethyl-5,6,7,8-tetrahydro-5,8-methanocinnolin-8-yl)pyrazin-2-yl)isoxazol-3-yl)propan-2-ol], the IC50 was 3 nM. The same measure for `Cc1ncn(-c2cccc([C@@]34CC[C@@H](c5cc(-c6c(F)cccc6F)nnc53)C4(C)C)n2)n1` [Example 270]: 1.9 nM.

Molecule `CC1(C)[C@H]2CC[C@]1(c1ccnc(-n3cnc(C(F)(F)F)n3)n1)c1nnc(-c3c(F)cccc3F)cc12` [Example 271] returned a half-inhibitory concentration (IC50) of 4.4 nM. The same measure for `CC(C)c1ncn(-c2nccc([C@@]34CC[C@@H](c5cc(-c6c(F)cccc6F)nnc53)C4(C)C)n2)n1` [Example 273]: 5.2 nM; for `CC1(C)[C@H]2CC[C@]1(c1ccnc(-n3cnc(C4CC4)n3)n1)c1nnc(-c3c(F)cccc3F)cc12` [Example 274]: 2 nM. Then `Cc1nc(-c2ccnc([C@@]34CC[C@@H](c5cc(-c6c(F)cccc6F)nnc53)C4(C)C)n2)co1` [Example 275, 4-(2-((5R,8R)-3-(2,6-difluorophenyl)-9,9-dimethyl-5,6,7,8-tetrahydro-5,8-methanocinnolin-8-yl)pyrimidin-4-yl)-2-methyloxazole], with 10.3 nM; and `CC(C)(O)c1ncn(-c2nccc([C@@]34CC[C@@H](c5cc(-c6c(F)cccc6F)nnc53)C4(C)C)n2)n1` [Example 276], with 15.5 nM; and `CNC(=O)c1nc(-c2ncc(F)c([C@@]34CC[C@@H](c5cc(-c6c(F)cccc6F)nnc53)C4(C)C)n2)no1` [Example 277], with 12.4 nM. Then `CC[C@@H](O)c1n[nH]c(-c2cncc([C@@]34CC[C@@H](c5cc(-c6c(F)cccc6F)nnc53)C4(C)C)n2)n1` [Example 278, (R)-1-(5-(6-((5R,8S)-3-(2,6-difluorophenyl)-9,9-dimethyl-5,6,7,8-tetrahydro-5,8-methanocinnolin-8-yl)pyrazin-2-yl)-1H-1,2,4-triazol-3-yl)propan-1-ol], with 6.8 nM. As to `C[C@@H](O)Cc1n[nH]c(-c2cncc([C@@]34CC[C@@H](c5cc(-c6c(F)cccc6F)nnc53)C4(C)C)n2)n1` [Example 279, (R)-1-(5-(6-((5R,8S)-3-(2,6-difluorophenyl)-9,9-dimethyl-5,6,7,8-tetrahydro-5,8-methanocinnolin-8-yl)pyrazin-2-yl)-1H-1,2,4-triazol-3-yl)propan-2-ol], the IC50 is 12.6 nM. The same measure for `CC(C)(O)c1c[nH]c(-c2cncc([C@@]34CC[C@@H](c5cc(-c6c(F)cccc6F)nnc53)C4(C)C)n2)n1` [Example 280, 2-(2-(6-((5R,8S)-3-(2,6-difluorophenyl)-9,9-dimethyl-5,6,7,8-tetrahydro-5,8-methanocinnolin-8-yl)pyrazin-2-yl)-1H-imidazol-4-yl)propan-2-ol]: 13.6 nM. Then `CC(C)(O)c1coc(-c2ccnc([C@@]34CC[C@@H](c5cc(-c6c(F)cccc6F)nnc53)C4(C)C)n2)n1` [Example 281, 2-(2-(2-((5R,8R)-3-(2,6-difluorophenyl)-9,9-dimethyl-5,6,7,8-tetrahydro-5,8-methanocinnolin-8-yl)pyrimidin-4-yl)oxazol-4-yl)propan-2-ol], with 14.9 nM; and `COC(=O)c1ccn(-c2nccc([C@@]34CC[C@@H](c5cc(-c6c(F)cccc6F)nnc53)C4(C)C)n2)n1` [Example 282], with 4.9 nM; and `CC1(C)[C@H]2CC[C@]1(c1nc(-c3nc(C(N)=O)no3)ncc1F)c1nnc(-c3c(F)cccc3F)cc12` [Example 283], with 11.6 nM.
